Measured values reported in ChEMBL document CHEMBL1201862, “PubChem BioAssay data set” (2004).
Activity calls are given as the source filed them.

How the values were obtained:
[1] = viability loss in HEK293 cells – cell-based, plate reader, cherry-picked samples, cytotoxicity control, dose response (AID 743446); assay type: functional
[2] = blockade of melanocortin 4 receptor signaling – cell-based, plate reader, cherry pick, counter-screen for LGR2 antagonist project, dose response (AID 743444); assay type: functional;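 note: transfected HEK 293 cells stimulated with alpha-MSH peptide; potency of inhibitors of the alpha-MSH evoked signal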
[3] = A549 cell cytotoxicity, dose response, cytotoxicity control, plate reader, cherry-pick, antagonist series (AID 743412); assay type: functional, cell-based
[4] = blockers of bursicon-stimulated LGR2 cAMP reporter – cell-based, HEK293, CRE-luciferase reporter, cherry pick, set 2, dose response (AID 743343); assay type: functional;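 note: transfected cells were stimulated with diluted bursicon conditioned medium after compound addition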
[5] = target: T1, Luciferin 4-monooxygenase (Photinus pyralis, UniProt P08659); assay: Counter Screen for Luciferase-based Assay Positives. [Related pubchem assays: 620, 618, 411 ]
HT-1080 = assay: HT1080 cell viability loss – fluorescence readout (AID 620); assay type: functional, cell-based; conditions: Homo sapiens
[6] = Luminescence Cell-Based Dose Retest to Confirm Inhibitors of Cancer Stem Cells. [Related pubchem assays (depositor defined):AID2717, AID2721]; assay type: functional; conditions: Homo sapiens
[7] = antiviral protection against BTV-induced cell death – arbovirus, BSR cells, confirmation (AID 1250); assay type: functional;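 note: protection from viral cytopathic effect measured as cell viability by ATP luminescence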
Estrogen receptor = target: T2, Estrogen receptor (Homo sapiens, UniProt P03372); assay: ERα coactivator recruitment enhancers – biochemical, TR-FRET, ERα LBD, dose response (AID 737)
T2 sequence (P03372 whole entry): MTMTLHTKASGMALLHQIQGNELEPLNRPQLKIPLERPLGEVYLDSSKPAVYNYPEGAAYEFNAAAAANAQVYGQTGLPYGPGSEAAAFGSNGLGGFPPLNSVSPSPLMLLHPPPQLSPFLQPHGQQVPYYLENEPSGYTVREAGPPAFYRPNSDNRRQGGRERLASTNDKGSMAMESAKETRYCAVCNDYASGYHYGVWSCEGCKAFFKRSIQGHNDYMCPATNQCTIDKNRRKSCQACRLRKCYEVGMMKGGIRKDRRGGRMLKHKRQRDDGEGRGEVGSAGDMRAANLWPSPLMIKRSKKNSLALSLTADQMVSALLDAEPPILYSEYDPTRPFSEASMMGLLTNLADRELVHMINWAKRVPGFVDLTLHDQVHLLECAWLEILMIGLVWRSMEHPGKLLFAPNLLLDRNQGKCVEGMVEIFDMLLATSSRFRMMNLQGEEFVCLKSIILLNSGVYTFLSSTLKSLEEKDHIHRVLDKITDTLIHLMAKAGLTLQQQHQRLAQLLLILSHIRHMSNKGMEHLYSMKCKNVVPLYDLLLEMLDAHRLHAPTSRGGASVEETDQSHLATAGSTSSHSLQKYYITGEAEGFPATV

[8] = target: T3, Endoribonuclease toxin MazF (Escherichia coli K-12, UniProt P0AE70); assay: substrate-only fluorescence increase artefacts – biochemical, single-stranded RNase substrate, counter-screen for MazEF activator project, dose response (AID 588502); assay type: functional
T3 sequence (P0AE70 whole entry): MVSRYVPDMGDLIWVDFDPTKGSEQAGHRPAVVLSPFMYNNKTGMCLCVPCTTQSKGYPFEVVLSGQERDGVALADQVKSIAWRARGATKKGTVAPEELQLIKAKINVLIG

[9] = target: T3, Endoribonuclease toxin MazF; assay: activation of MazEF endoribonuclease cleavage – biochemical, fluorescence, single-stranded RNA substrate, uHTS hits, dose response (AID 588481); assay type: functional
[10] = target: Peroxisome proliferator-activated receptor gamma/Nuclear receptor coactivator 2 (Homo sapiens, UniProt P37231); assay: TR-FRET dose response biochemical High Throughput Screening assay for agonists of the steroid receptor coactivator 2 (SRC-2) recruitment by the peroxisome proliferator-activated receptor gamma (PPAR gamma): non-selective agonists. [Related pubchem assays: 1297, 1032 ]; assay type: functional
[11] = NIH3T3 cell viability loss – ATP luminescence, mouse fibroblasts, counter-screen, dose response (AID 2010); assay type: functional, cell-based;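 note: cells exposed to compound for about 90 hours before reading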
[12] = target: Peroxisome proliferator-activated receptor gamma/Nuclear receptor coactivator 3 (Homo sapiens, UniProt P37231); assay: TR-FRET dose response biochemical High Throughput Screening assay for agonists of the steroid receptor coactivator 3 (SRC-3) recruitment by the peroxisome proliferator-activated receptor gamma (PPAR gamma): non-selective agonists. [Related pubchem assays: 1301 (Confirmation screen.), 1048 (Primary screen.)]; assay type: functional
[13] = T. cruzi infection blockers in NIH3T3 cells – beta-gal luminescence, NIH3T3 host cells, confirmation (AID 2630); assay type: functional, cell-based; conditions: Mus musculus
[14] = Luminescence Cell-Based Secondary HTS screen to identify cytotoxic compounds of NIH3T3 cells. [Related pubchem assays: 1885, 1968 ]; assay type: functional
[15] = Trypanosoma cruzi growth suppression in host cells – NIH3T3 host cells, beta-gal luminescence, confirmation (AID 2044); assay type: functional, cell-based;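 note: intracellular parasites grown in NIH/3T3 mouse fibroblasts as host cells; luminescent beta-galactosidase reporter signal from transgenic T. cruzi replicating inside host cells; inhibitors lower the luminescence signal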
[16] = Luminescence Cell-Based/Microorganism Confirmation at Dose of Inhibitors of Trypanosoma cruzi Infection. [Related pubchem assays: 1885, 1968 ]; assay type: functional
[17] = target: Peroxisome proliferator-activated receptor gamma/Nuclear receptor coactivator 1 (Homo sapiens, UniProt P37231); assay: TR-FRET dose response biochemical High Throughput Screening assay for agonists of the steroid receptor coactivator 1 (SRC-1) recruitment by the peroxisome proliferator-activated receptor gamma (PPAR gamma): non-selective agonists. [Related pubchem assays (depositor defined):AID1300, AID1808, AID504735, AID631]; assay type: protein assay
[18] = target: Neuropeptide Y receptor type 2 (Homo sapiens, UniProt P49146); assay: IC50 for human NPY-Y2 blockade – cell-based, counter-screen for NPY-Y1 antagonist project, dose response (AID 1278); assay type: functional
[19] = target: Neuropeptide Y receptor type 1 (Homo sapiens, UniProt P25929); assay: IC50 of human NPY-Y1 blockers – cell-based, dose response (AID 1277); assay type: functional
BJ [20] = assay: growth inhibition of engineered Ras-driven BJ cells – cell-based, alamar blue fluorescence, cherrypicked samples, dose response (AID 2631); assay type: functional; conditions: Homo sapiens;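 note: confirmatory dose-response assay in RAS-dependent BJ fibroblasts engineered with TERT, LT and ST, with cytotoxicity read by fluorescence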
[21] = Luminescence Cell-Based Dose Response HTS to Identify Inhibitors of 5'UTR Stem-Loop Driven Prion Protein mRNA Translation in H4 Neuroglioblastoma Cells. [Related pubchem assays: 1827 (Project Summary), 1813 (Primary HTS)]; assay type: functional
BJ [22] = assay: BJ-TERT fibroblast viability loss – cell-based, RAS-independent, luminescence, dose response (AID 1933); assay type: functional; conditions: Homo sapiens
HEK293 = assay: EBV LMP1 TES2 canonical NF-kB signalling blockers – cell-based, HEK293, luciferase, cherry-pick, dose response (AID 588343); assay type: functional; conditions: Homo sapiens
[23] = target: T4, Oxysterols receptor LXR-beta (Homo sapiens, UniProt P55055); assay type: functional, cell-based;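 note: agonist activity at LXR measured by a cell-based luminescence readout across a dose range, run as a counterscreen for daf-12 agonists; HEK293 cells with Gal4-LXR fusion and GAL4-driven luciferase reporter; potency for activation of Gal4-LXR reporter so compounds are agonists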
T4 sequence (P55055 whole entry): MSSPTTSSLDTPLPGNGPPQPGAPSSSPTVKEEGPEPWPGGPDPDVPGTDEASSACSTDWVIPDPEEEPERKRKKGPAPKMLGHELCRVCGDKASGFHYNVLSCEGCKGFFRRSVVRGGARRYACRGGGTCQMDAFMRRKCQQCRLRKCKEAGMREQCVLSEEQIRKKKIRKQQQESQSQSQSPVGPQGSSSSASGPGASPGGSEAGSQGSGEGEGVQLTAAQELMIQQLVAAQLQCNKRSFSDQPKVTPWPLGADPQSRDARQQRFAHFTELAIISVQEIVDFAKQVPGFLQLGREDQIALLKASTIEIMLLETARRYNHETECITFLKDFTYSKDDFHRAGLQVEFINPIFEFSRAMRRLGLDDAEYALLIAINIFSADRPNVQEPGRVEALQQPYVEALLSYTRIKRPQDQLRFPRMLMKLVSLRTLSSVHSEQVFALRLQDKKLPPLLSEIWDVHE

[24] = DRD fibroblast viability loss – cell-based, non-viral oncogenic, luminescence, dose response (AID 1934); assay type: functional; conditions: Homo sapiens
BJ [25] = assay: cells; assay type: functional, cell-based; conditions: Homo sapiens
[26] = target: T5, Heat shock factor protein 1 (Mus musculus, UniProt P38532); assay: decrease of HSF1-responsive luciferase luminescence – cell-based, NIH3T3, dose retest, confirmation (AID 2382); assay type: functional;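 note: NIH3T3 fibroblasts with HSF1-driven luciferase reporter stressed by proteasome inhibitor MG132; luminescence from HSF1-driven luciferase expression after 8 hours of MG132 stress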
T5 sequence (P38532 whole entry): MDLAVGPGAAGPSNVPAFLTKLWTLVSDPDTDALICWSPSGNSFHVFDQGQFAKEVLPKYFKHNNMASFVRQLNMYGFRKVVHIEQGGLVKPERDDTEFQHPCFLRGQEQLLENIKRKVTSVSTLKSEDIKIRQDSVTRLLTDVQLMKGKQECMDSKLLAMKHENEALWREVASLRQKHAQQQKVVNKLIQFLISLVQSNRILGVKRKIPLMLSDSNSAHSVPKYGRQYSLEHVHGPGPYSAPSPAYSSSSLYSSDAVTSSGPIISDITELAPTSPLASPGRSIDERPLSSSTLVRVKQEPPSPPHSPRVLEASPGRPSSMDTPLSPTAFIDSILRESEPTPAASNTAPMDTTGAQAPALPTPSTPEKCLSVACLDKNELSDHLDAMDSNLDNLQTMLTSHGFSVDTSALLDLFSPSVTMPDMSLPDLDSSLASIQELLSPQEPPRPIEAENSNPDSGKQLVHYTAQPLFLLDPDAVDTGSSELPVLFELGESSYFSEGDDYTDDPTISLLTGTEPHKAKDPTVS

[27] = toxicity toward HepG2 liver cells – cell-based, plate reader, cherry-pick, antagonist series, cytotoxicity control, dose response (AID 743416); assay type: functional
[28] = Luminescence Cell-Based Dose Confirmation HTS to Identify Inhibitors of Platelet Dense Granule Release. [Related pubchem assays: 1663 (Primary HTS), 1678 (Summary of Project)]; assay type: functional
[29] = alpha-synuclein stem-loop luciferase translation blockers – H4 neuroglioma cells, luminescence, confirmation (AID 1988); assay type: functional, cell-based
BJ [30] = assay: BJ-TERT-LT-ST fibroblast viability loss – cell-based, RAS-independent, luminescence, dose response (AID 1935); assay type: functional; conditions: Homo sapiens;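 note: BJ fibroblasts immortalized with TERT plus LT and ST oncogenes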
[31] = target: T1, Luciferin 4-monooxygenase; assay: inhibition of purified Photinus pyralis luciferase – biochemical, luminescence, dose response (AID 1891)
[32] = Luminescence-based counterscreen assay for KLF5 inhibitors: dose response cell-based high throughput screening assay to identify cytotoxic compounds using the IEC-6 intestinal epithelial cell line. [Related pubchem assays: 1700 (Primary screen.), 1834 (Confirmation screen.), 1858 (Summary AID.), 1905 (Counterscreen.)]; assay type: functional
Cytochrome P450 2C9 = Cytochrome P450 2C9 (Homo sapiens, UniProt P11712)
Cytochrome P450 2D6 = Cytochrome P450 2D6 (Homo sapiens, UniProt P10635);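 note: CYP2D6 member of a cytochrome P450 panel assay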
[33] = target: Lytic switch protein BZLF1 (Epstein-Barr virus (strain B95-8) (HHV-4) (Human herpesvirus 4), UniProt P03206); assay: inhibition of BZLF1 ZTA DNA binding – biochemical, fluorescence polarization, Epstein-Barr virus, 1536-well, counter-screen for EBNA-1 inhibitor project, dose response (AID 2377); set-up: species or system human gammaherpesvirus 4;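 note: fluorescence polarization of Cy5-labelled ZRE DNA probe bound by purified Zta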
[34] = target: Epstein-Barr nuclear antigen 1 (Epstein-Barr virus (strain B95-8) (HHV-4) (Human herpesvirus 4), UniProt P03211); assay: inhibition of EBV nuclear antigen 1 DNA binding – biochemical, fluorescence polarization, 1536-well, dose response (AID 2381); set-up: species or system human gammaherpesvirus 4;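 note: fluorescence polarization of a Cy5 DNA probe bound by EBNA-1 protein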
Chain of Epstein-Barr nuclear antigen 1 (P03211 whole entry): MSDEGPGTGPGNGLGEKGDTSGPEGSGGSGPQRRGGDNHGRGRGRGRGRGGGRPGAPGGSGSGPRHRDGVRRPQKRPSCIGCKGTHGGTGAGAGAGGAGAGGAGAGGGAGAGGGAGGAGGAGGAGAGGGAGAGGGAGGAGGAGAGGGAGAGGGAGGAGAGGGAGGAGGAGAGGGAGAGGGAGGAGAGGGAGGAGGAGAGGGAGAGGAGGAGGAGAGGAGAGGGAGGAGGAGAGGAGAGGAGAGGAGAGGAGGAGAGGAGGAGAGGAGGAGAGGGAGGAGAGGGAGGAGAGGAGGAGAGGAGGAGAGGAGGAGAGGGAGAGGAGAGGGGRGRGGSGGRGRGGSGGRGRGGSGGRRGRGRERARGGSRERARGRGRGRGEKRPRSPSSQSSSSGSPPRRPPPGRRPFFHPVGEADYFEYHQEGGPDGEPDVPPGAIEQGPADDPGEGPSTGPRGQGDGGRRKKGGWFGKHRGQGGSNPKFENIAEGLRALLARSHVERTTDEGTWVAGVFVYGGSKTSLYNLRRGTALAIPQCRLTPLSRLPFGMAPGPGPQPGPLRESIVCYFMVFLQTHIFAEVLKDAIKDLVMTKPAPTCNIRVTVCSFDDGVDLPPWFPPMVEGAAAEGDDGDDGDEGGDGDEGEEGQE

T1 sequence (P08659 whole entry): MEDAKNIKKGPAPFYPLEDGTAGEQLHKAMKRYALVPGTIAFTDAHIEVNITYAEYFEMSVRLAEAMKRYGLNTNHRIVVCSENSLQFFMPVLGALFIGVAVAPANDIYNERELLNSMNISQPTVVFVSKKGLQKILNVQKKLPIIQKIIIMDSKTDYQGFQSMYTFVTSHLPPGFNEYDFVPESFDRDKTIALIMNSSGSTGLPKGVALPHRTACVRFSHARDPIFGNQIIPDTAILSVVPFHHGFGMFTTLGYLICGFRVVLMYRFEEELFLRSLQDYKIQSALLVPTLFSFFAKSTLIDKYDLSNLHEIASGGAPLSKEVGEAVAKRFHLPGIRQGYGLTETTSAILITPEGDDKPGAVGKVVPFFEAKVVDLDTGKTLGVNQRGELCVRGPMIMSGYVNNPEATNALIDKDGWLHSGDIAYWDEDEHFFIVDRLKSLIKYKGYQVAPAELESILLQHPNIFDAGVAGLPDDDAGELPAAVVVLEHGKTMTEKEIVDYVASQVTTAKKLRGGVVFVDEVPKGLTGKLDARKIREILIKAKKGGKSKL
Chain of Cytochrome P450 2D6 (P10635 whole entry): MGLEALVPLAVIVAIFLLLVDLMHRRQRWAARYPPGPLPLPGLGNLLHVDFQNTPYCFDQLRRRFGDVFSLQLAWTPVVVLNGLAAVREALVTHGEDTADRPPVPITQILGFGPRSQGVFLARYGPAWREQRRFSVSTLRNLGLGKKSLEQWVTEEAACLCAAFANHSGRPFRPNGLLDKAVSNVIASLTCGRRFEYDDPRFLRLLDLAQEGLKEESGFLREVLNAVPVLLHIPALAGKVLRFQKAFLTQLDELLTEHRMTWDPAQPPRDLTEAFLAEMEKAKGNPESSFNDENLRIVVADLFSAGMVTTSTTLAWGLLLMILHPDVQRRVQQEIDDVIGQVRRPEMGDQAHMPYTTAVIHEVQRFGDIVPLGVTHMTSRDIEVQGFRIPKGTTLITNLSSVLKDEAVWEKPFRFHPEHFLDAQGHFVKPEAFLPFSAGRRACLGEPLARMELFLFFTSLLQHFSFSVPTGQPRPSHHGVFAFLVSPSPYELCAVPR
Chain of Cytochrome P450 2C9 (P11712 whole entry): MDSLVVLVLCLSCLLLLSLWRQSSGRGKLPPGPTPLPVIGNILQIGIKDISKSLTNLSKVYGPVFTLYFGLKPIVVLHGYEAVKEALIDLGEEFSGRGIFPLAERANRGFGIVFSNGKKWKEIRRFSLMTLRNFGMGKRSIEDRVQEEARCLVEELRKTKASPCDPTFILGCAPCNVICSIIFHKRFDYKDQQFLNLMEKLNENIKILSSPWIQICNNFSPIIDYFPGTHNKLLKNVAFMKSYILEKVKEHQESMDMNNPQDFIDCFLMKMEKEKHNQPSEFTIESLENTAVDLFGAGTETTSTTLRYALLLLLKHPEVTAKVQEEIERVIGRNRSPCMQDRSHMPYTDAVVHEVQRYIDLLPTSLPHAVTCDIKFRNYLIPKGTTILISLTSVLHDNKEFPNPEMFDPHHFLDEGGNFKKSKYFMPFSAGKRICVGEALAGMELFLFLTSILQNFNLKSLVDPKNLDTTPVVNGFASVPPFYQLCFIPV
Chain of Neuropeptide Y receptor type 1 (P25929 whole entry): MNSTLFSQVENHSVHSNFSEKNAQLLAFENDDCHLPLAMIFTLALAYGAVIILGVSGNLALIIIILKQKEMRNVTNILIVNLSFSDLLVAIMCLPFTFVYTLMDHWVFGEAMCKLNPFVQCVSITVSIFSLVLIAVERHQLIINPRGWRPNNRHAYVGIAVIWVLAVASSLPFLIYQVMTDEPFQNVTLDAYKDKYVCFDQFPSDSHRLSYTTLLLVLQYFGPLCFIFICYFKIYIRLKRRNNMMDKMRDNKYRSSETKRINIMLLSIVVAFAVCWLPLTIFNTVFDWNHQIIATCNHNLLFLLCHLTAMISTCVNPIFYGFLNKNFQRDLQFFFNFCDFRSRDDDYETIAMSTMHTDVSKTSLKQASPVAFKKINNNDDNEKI
Chain of Neuropeptide Y receptor type 2 (P49146 whole entry): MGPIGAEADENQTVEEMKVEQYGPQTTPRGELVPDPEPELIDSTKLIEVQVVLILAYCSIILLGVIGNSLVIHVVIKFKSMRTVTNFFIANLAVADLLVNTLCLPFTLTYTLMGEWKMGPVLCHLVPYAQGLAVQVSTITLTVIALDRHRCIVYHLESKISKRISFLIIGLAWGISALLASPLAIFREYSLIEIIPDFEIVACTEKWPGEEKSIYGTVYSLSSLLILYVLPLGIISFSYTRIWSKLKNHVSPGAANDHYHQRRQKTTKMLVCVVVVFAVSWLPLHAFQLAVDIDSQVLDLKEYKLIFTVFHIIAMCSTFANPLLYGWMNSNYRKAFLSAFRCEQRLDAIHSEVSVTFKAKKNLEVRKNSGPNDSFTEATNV
Chain of Lytic switch protein BZLF1 (P03206 whole entry): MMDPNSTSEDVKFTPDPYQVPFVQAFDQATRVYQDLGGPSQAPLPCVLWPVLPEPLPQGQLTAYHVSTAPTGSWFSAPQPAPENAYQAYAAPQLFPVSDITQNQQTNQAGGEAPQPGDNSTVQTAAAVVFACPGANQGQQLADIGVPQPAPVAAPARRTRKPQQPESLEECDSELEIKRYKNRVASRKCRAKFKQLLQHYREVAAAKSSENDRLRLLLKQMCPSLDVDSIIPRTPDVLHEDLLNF

CCOc1ccc(C(=O)NCCc2ccccc2)cc1
AC50 [1]: > 52 µM (inactive)
AC50 [2]: 3.43 µM (active)
AC50 [3]: > 52 µM (inactive)
AC50 [4]: 4.83 µM (active)
EC50 [5]: 1.09 µM (active)
EC50 (HT-1080): > 50 µM (not active)

CC(C)(Oc1ccc(Cl)cc1)C(=O)NC1=NN(c2ccccc2)C(=O)C1
AC50 [6]: 3.91 µM (active)
IC50 [7]: 31.8 µM (active)

CCc1ccc2nc(SCC(=O)N3CC(=O)Nc4ccccc43)c(C#N)cc2c1
EC50 (Estrogen receptor): 32.9 µM (not active)
EC50 [8]: > 99 µM (inactive)
EC50 [9]: > 99 µM (inactive)

COc1cc(C(=O)NCCC(C)C)ccc1OCc1ccc(Cl)cc1Cl
EC50 [10]: > 79.4 µM (not active)
EC50 [11]: > 30 µM (not active)
EC50 [12]: > 79.4 µM (not active)
EC50 [13]: 4.43 µM (active)
EC50 [14]: > 195 µM (not active)
EC50 [15]: 1.34 µM (active)
EC50 [16]: 4.43 µM (inconclusive)
EC50 [17]: > 79.4 µM (inactive)

CC(C)(C)NC(=O)c1oc2ccccc2c1COc1ccccc1
IC50 [18]: > 35 µM (not active)
IC50 [19]: 18.9 µM (not active)

CCNC(S)=NNC(=O)c1cc(-c2ccc(OCC)cc2)nc2ccccc12
EC50 (BJ [20]): > 133 µM (inactive)
EC50 [21]: 16.1 µM (active)
EC50 (BJ [22]): 8.23 µM (inconclusive)
AC50 (HEK293): 1.7 µM (active)
EC50 [23]: > 67.5 µM (inactive)
EC50 [24]: 11.7 µM (active)
AC50 [2]: 4.32 µM (active)
EC50 (BJ [25]): 3.3 µM (active)
AC50 [3]: > 52 µM (inactive)
EC50 [26]: 19 µM (active)
AC50 [27]: 49.6 µM (active)
EC50 [28]: 1.08 µM (active)
AC50 [4]: 3.19 µM (active)
EC50 [29]: 10.4 µM (active)
EC50 (BJ [30]): > 150 µM (not active)
EC50 [31]: < 0.088 µM (active)
IC50 [32]: > 39.8 µM (not active)

COc1ccc(/C=C/C(=O)Oc2cccc(/C=N/NC(=O)COc3c(C)cccc3C)c2)cc1
AC50 (Cytochrome P450 2C9): 3.55 µM (inconclusive)
AC50 (Cytochrome P450 2D6): inconclusive
IC50 [33]: > 111 µM (not active)
IC50 [34]: 6.28 µM (active)
